This is an account of results in patent US7271171B2, “Adenosine A3 receptor modulators” (King Pharmaceuticals Research and Development, Inc., priority 1998, dated 2007).

Experiment [1] concerns the target T1, human recombinant A1 adenosine receptor (Homo sapiens, UniProt P30542).
T1 construct: expressed in transfected cells; host or cells: CHO
T1 sequence (P30542 1-326): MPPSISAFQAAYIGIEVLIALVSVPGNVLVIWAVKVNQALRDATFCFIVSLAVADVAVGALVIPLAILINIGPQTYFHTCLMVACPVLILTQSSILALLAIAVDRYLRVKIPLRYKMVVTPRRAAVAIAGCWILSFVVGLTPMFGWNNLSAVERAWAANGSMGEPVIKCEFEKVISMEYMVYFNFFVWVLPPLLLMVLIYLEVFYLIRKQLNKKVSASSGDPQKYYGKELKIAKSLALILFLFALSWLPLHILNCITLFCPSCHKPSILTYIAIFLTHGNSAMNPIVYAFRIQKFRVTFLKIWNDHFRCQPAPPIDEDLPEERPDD
Description: Human cloned A1 receptor binding, [3H]-DPCPX, CHO cells. The conditions noted are these: read-out: hA1 (Ki). How it is done:
(§1) The expression of the human A1, A2A, A2B and A3 receptors in CHO cells has been previously described (Klotz et al., 1998). The cells are grown adherently and maintained in Dulbecco's modified Eagle's medium with nutrient mixture F12 without nucleosides at 37 ° C. in 5% CO2/95% air. Cells are split two or three times weekly and then the culture medium is removed for membrane preparations. The cells are washed with phosphate-buffered saline and scraped off flasks in ice cold hypotonic buffer (5 mM Tris HCl, 2 mM EDTA, pH 7.4). The cell suspension is homogenized with Polytron and the homogenate is centrifuged for 30 min. at 48,000 g. The membrane pellet is re-suspended in 50 mM Tris HCl buffer at pH 7.4 for A1 adenosine receptors, in 50 mM Tris HCl, 10 mM MgCl2 at pH 7.4 for A2A adenosine receptors, in 50 mM Tris HCl, 10 mM MgCl2, 1 mM EDTA at pH 7.4 for A3 adenosine receptors and are utilized for binding and adenylate cyclase assays.
Binding of [^3H]-DPCPX to CHO cells transfected with the human recombinant A1 adenosine receptor is performed according to the method previously described by Klotz and coworkers (Klotz, K. N.; Cristalli, G.; Grifantini, M.; Vittori, S.; Lohse, M. J., “Photoaffinity labeling of A1 adenosine receptors,” J. Biol. Chem., 260, 14659-14664, 1985).
(§2) Displacement experiments are performed for 120 min. at 25° C. in 0.20 mL of buffer containing 1 nM [^3H]-DPCPX, 20 μL of diluted membranes (50 μg of protein/assay) and at least 6-8 different concentrations of examined compounds. Non-specific binding is determined in the presence of 10 μM of CHA and this is always 10% of the total binding. Binding of [^3H]-SCH58261 to CHO cells transfected with the human recombinant A2A adenosine receptors (50 μg of protein/assay) was performed according to Varani et al. (Varani, K; Cacciari, B.; Baraldi, P. G.; Dionisotti, S.; Ongini, E.; Borea, P. A., “Binding affinity of adenosine receptor agonists and antagonists at human cloned […] adenosine receptors,” Life Sci., 63, 81-87, 1998). In competition studies, at least 6-8 different concentrations of compounds are used and non-specific binding is determined in the presence of 50 μM NECA for an incubation time of 60 min. at 25° C.

Experiment [2] deals with T2, human recombinant A2A adenosine receptors (Homo sapiens, UniProt P29274).
T2 construct: expressed in transfected cells; host or cells: CHO
Description: Human cloned A2A receptor binding, [3H]-SCH58261, CHO cells. The conditions noted are these: read-out: hA2A (Ki). How it is done: as §1, §2

Experiment [3] deals with T3, human recombinant A2B adenosine receptors (Homo sapiens, UniProt P29275).
T3 construct: host or cells: HEK-293
T3 sequence (P29275 1-332): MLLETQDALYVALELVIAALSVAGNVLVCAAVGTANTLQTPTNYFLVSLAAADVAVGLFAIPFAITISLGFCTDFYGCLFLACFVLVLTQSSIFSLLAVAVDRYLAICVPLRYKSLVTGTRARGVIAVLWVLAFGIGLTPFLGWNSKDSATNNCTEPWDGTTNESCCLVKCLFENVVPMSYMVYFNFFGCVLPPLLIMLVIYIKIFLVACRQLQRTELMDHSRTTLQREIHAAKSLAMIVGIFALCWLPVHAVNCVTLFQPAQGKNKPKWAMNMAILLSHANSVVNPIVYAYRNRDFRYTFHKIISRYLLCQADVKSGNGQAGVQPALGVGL
Description: Human cloned A2B receptor binding, [3H]-DPCPX, HEK-293 cells. The following applies: read-out: hA2B (Ki). How it is done:
Binding of [^3H]-DPCPX to HEK-293 cells (Receptor Biology, Inc., Beltsville, Md.) transfected with the human recombinant A2B adenosine receptors is performed essentially to the method described by Varani and coworkers (Mol. Pharmacol.). In particular, assays are carried out for 60 min. at 25° C. in 0.1 mL of 50 mM Tris HCl Buffer, 10 mM MgCl2, 1 mM EDTA, 0.1 mM benzamidine pH 7.4, 2 IU/ml adenosine deaminase containing 40 nM [^3H]-DPCPX, diluted membranes (20 µg of protein/assay) and at least 6-8 different concentration of tested compounds. Non-specific binding is determined in the presence of 100 μM of NECA and is always 30% of the total binding.

Experiment [4] addresses T4, human recombinant A3 adenosine receptor (Homo sapiens, UniProt P0DMS8).
T4 sequence (P0DMS8 1-318): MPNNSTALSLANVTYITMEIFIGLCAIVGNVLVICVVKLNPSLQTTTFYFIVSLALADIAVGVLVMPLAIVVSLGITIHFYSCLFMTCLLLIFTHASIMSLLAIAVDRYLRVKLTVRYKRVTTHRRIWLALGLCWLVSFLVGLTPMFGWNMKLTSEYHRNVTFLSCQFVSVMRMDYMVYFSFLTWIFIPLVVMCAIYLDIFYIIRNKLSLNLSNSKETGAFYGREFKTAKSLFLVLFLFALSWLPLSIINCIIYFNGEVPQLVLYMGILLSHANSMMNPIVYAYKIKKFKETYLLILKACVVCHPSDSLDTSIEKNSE
Description: Human cloned A3 receptor binding, [3H] MRE3008-F20, CHO cells. The following applies: for Ki: CHO cells, [3H] MRE3008-F20, read-out: hA3 (Ki); for hA1/hA3 / hA2A/hA3 / hA2B/hA3: selectivity ratio of Ki values. The arrangement: expressed in transfected cells; host or cells: CHO.
Description: The cells are grown adherently and maintained in Dulbecco's modified Eagle's medium with nutrient mixture F12 without nucleosides at 37 ° […] Cells are split two or three times weekly and then the culture medium is removed for membrane preparations. The cells are washed with phosphate-buffered saline and scraped off flasks in ice cold hypotonic buffer (5 mM Tris HCl, 2 mM EDTA, pH 7.4). The cell suspension is homogenized with Polytron and the homogenate is centrifuged for 30 min. at 48,000 g. The membrane pellet is re-suspended in 50 mM Tris HCl buffer at pH 7.4 for A1 adenosine receptors, in 50 mM Tris HCl, 10 mM MgCl2 at pH 7.4 for A2A adenosine receptors, in 50 mM Tris HCl, 10 mM MgCl2, 1 mM EDTA at pH 7.4 for A3 adenosine receptors and are utilized for binding and adenylate cyclase assays.

The target in another experiment is T5, rA1 adenosine receptor (Rattus norvegicus, UniProt P25099).
T5 construct: membranes of rat brain (150-200 μg- of protein/assay); from tissue; host or cells: whole brain of male Wistar rats
T5 sequence (P25099 1-326): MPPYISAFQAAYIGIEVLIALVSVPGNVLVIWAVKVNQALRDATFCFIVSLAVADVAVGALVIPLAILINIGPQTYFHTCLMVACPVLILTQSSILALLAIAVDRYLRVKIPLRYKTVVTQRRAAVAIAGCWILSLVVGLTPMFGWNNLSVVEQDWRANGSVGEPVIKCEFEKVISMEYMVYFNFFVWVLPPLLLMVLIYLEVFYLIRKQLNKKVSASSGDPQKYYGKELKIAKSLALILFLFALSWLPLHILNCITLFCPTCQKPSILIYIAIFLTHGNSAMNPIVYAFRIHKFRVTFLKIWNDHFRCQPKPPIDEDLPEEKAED
Description: Rat A1 adenosine receptor binding assay, [3H]CHA displacement, rat brain membranes.

Another experiment concerns the target T6, rA2A adenosine receptor (Rattus norvegicus, UniProt P30543).
T6 construct: membranes of rat striatum (80-100 μmg of protein/assay); from tissue; host or cells: striatum of male Wistar rats
Description: Rat A2A adenosine receptor binding assay, [3H]SCH58261 displacement, rat striatum membranes.

Experiment [5] concerns the target T4, human recombinant A3 adenosine receptor. Description: Human cloned A3 adenosine receptor binding assay, [125I]AB-MECA, HEK-293 membranes. The following applies: for Ki: HEK-293 membranes, [125I]AB-MECA, read-out: hA3 (Ki); for rA1/hA3 / rA2A/hA3: selectivity ratio of Ki values. The arrangement: USA; host or cells: HEK-293.
Setting [6] is: rat striatum membranes, [3H]SCH58261, read-out: rA2A (Ki).

Where a name gives a salt, the structure may show the parent alone. Read-outs that look alike come from different tables or passages of the source. A value given as a limit tells only on which side of the number the result lay.

T6 sequence (P30543 whole entry): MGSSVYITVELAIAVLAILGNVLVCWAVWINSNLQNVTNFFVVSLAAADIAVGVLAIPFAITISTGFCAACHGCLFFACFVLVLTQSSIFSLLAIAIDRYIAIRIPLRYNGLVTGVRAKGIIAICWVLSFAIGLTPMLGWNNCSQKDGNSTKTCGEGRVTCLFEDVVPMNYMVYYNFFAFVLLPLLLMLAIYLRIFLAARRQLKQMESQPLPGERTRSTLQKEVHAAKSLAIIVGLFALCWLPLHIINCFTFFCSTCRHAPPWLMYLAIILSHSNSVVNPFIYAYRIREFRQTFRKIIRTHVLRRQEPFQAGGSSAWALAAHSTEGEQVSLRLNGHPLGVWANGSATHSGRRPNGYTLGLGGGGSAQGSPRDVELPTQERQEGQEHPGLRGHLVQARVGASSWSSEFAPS
T2 sequence (P29274 whole entry): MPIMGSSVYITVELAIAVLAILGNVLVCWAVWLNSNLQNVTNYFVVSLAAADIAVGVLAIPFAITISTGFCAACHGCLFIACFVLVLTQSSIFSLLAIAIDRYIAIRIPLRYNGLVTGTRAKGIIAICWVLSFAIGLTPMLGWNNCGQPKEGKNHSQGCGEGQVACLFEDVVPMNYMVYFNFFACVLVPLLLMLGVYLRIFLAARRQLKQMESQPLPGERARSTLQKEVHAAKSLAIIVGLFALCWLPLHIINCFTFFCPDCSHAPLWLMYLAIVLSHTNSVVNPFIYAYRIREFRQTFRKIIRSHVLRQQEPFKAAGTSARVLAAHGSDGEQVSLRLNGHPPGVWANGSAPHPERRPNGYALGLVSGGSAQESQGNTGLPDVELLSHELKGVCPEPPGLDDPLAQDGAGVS
Description for rA1 adenosine receptor: (§3) Male Wistar rats (200-250 g) were decapitated and the whole brain and striatum dissected on ice. […] The homogenate was centrifuged at 48,000 for 10 min, and the pellet was resuspended in the same buffer containing 2 IU/mL adenosine deaminase. After 30 min incubation at 37° C., the membranes were centrifuged and pellets were stored at −80° C. Prior to freezing, an aliquot of homogenate was removed for protein assay with bovine albumin as reference standard. Binding assays were performed on rat brain and striatum membranes respectively, in the presence of 10 mM MgCl2 at 25° C.
(§4) Separation of bound from free radio ligand was performed by rapid filtration through Whatman GF/B filters which were washed three times with ice-cold buffer. Filter bound radioactivity was measured by scintillation spectrometry after addition of 5 mL of Aquassure. […] Ki values were calculated from the Cheng-Prusoff equation. All binding data were analyzed using the nonlinear regression curve-fitting computer program LIGAND.
Description for rA2A adenosine receptor: as §3, §4

As a reminder, the Ki is the equilibrium dissociation constant of an inhibitor or competing ligand from its target. As to `CN1CCN(S(=O)(=O)c2ccc(NC(=O)Nc3nc4nn(C)cc4c4nc(-c5ccco5)nn34)cc2)CC1` [Compound 105, N-[2-(2-furyl)-8-methyl-8H-pyrazolo[4,3-e][1,2,4]triazolo[1,5-c]pyrimidin-5-yl]-N′{-4-[(4-methylpiperazin-1-yl)sulfonyl]-phenyl}urea], the Ki is > 1000 nM in experiment [1], > 1000 nM in experiment [2], > 1000 nM in experiment [3] and 29 nM in experiment [4]. Further, the hA1/hA3 in experiment [4] came out at 34.5. The hA2A/hA3 in experiment [4] was found to be 34.5. Also, the hA2B/hA3 in experiment [4] turned out to be 34.5.
As for `CCN(CC)c1ccc(NC(=O)Nc2nc3nn(C)cc3c3nc(-c4ccco4)nn23)cc1` [Compound 102, N-[8-methyl-2-(2-furyl)-8H-pyrazolo[4,3-e][1,2,4]triazolo[1,5-c]pyrimidin-5-yl]-N′-[4-(diethylamino)phenyl]urea hydrochloride], the figures for the inhibition constant Ki in experiment [1], in experiment [2] and in experiment [3] were 680 nM, 593 nM and 276 nM, respectively.
For the compound `CN(C)c1ccc(NC(=O)Nc2nc3nn(C)cc3c3nc(-c4ccco4)nn23)cc1` [Compound 103, N-[8-methyl-2-(2-furyl)-8H-pyrazolo[4,3-e][1,2,4]triazolo[1,5-c]pyrimidin-5-yl]-N′-[4-(dimethylamino)phenyl]urea hydrochloride], the Ki in experiment [1] was > 10000 nM; in experiment [2], > 10000 nM; in experiment [3], 609 nM.
Consider `CCN(CC)c1ccc(NC(=O)Nc2nc3nn(C)cc3c3nc(-c4ccco4)nn23)cc1` [Compound 101, N-[4-(diethylamino)phenyl]-N′-[2-(2-furyl)-8-methyl-8H -pyrazolo[4,3-e][1,2,4]triazolo[1,5-c]pyrimidin-5-yl]urea], for which the Ki in experiment [1] amounted to 580 nM; in experiment [2], 523 nM; in experiment [3] it was 350 nM.
As to `Cn1cc2c(nc(NC(=O)Nc3ccc(S(=O)(=O)N4CCOCC4)cc3)n3nc(-c4ccco4)nc23)n1` [Compound 104], the Ki in experiment [1] was 726 nM. Besides, the inhibition constant (Ki) in experiment [2] turned out to be 1400 nM. In experiment [3], the Ki was > 10000 nM. Also, in experiment [4], the Ki was found to be 2.47 nM, the hA1/hA3 was determined as 294, the hA2A/hA3 is on record as 566 and the hA2B/hA3 is 4050.
Regarding `CCCn1cc2c(nc(N)n3nc(-c4ccco4)nc23)n1` [Compound 36, 5-Amino-8-propyl-2-(2-furyl)-pyrazolo[4,3-e]1,2,4-triazolo[1,5-c]pyrimidine], the Ki was determined as 139 nM on rA1 adenosine receptor, 20.2 nM on rA2A adenosine receptor (setting [6]) and 613 nM in experiment [5]. Further, the rA1/hA3 in experiment [5] is 0.22. The rA2A/hA3 in experiment [5] is recorded as 0.03.
For `COc1ccc(NC(=O)Nc2nc3nn(CCC(C)C)cc3c3nc(-c4ccco4)nn23)cc1` [Compound 51, 5-[[(4-Methoxyphenyl)amino]carbonyl]amino-8-isopentyl-2-(2-furyl)-pyrazolo[4,3-e]1,2,4-triazolo[1,5-c]pyrimidine] the same measures were 476 nM, 376 nM, 29.6 nM, 16 and 13.
As for `CCCCn1cc2c(nc(NC(=O)Nc3ccc(OC)cc3)n3nc(-c4ccco4)nc23)n1` [Compound 49, 5-[[(4-Methoxyphenyl)amino]carbonyl]amino-8-butyl-2-(2-furyl)-pyrazolo[4,3-e]1,2,4-triazolo[1,5-c]pyrimidine], the Ki at rA1 adenosine receptor was 2100 nM; at rA2A adenosine receptor it was 649 nM; in experiment [5], 0.3 nM.
Turning to `O=C(Nc1cccc(Cl)c1)Nc1nc2nn(CCc3ccccc3)cc2c2nc(-c3ccco3)nn12` [Compound 54, 5-[[(3-Chlorophenyl)amino]carbonyl]amino-8-(2-(phenyl)ethyl)-2-(2-furyl)-pyrazolo[4,3-e]1,2,4-triazolo[1,5-c]pyrimidine], the Ki at rA1 adenosine receptor is 1050 nM; at rA2A adenosine receptor (setting [6]) it was 1700 nM; in experiment [5], 13.3 nM. Besides, in experiment [5], the rA1/hA3 amounted to 79. In addition, the rA2A/hA3 in experiment [5] was 128.
Regarding `CCn1cc2c(nc(NC(=O)Nc3ccc(OC)cc3)n3nc(-c4ccco4)nc23)n1` [Compound 109], the Ki in experiment [1] was determined as 1030 nM. The Ki in experiment [2] was 1040 nM. In addition, in experiment [4], the Ki is 0.28 nM, the hA1/hA3 is given as 3660 and the hA2A/hA3 stood at 3730.
On to `CCCn1cc2c(nc(NC(=O)Nc3ccc(OC)cc3)n3nc(-c4ccco4)nc23)n1` [Compound 108, 5-[[(4-methoxyphenyl)amino]carbonyl]amino-8-propyl-2-(2-furyl)-pyrazolo[4, 3]-e-1 ,2,4-triazolo[1,5-c]pyrimidine], for which the results for the inhibition constant (Ki) in experiment [1] and in experiment [2] were 1200 nM and 141 nM, respectively.
As to `CCCCn1cc2c(nc(NC(=O)Nc3cccc(Cl)c3)n3nc(-c4ccco4)nc23)n1` [Compound 48, 5-[[(3-Chlorophenyl)amino]carbonyl]amino-8-butyl-2-(2-furyl)-pyrazolo[4,3-e]1,2,4-triazolo[1,5-c]pyrimidine], the Ki at rA1 adenosine receptor is 1520 nM. Besides, the Ki at rA2A adenosine receptor (setting [6]) was 498 nM. Further, in experiment [5], the Ki was found to be 0.75 nM, the rA1/hA3 is reported as 2,020 and the rA2A/hA3 amounted to 664.
